Where a name gives a salt, the structure may show the parent alone.
Legend:
adenosine A1 receptor = molecular target: T1, adenosine A1 receptor (Homo sapiens, UniProt P30542); assay: Indirect determination of adenosine agonism by gene expression (luciferase, cAMP-dependent promoter), A1 cells; assay type: cell-based; details: CHO cells stably transfected with A1 receptor cDNA; 1 μM forskolin; concentration at which 50% of the luciferase answer is inhibited
T1 construct: expressed in transfected cells; host or cells: CHO (Chinese Hamster Ovary) cells, stably transfected
T1 sequence (P30542 1-326): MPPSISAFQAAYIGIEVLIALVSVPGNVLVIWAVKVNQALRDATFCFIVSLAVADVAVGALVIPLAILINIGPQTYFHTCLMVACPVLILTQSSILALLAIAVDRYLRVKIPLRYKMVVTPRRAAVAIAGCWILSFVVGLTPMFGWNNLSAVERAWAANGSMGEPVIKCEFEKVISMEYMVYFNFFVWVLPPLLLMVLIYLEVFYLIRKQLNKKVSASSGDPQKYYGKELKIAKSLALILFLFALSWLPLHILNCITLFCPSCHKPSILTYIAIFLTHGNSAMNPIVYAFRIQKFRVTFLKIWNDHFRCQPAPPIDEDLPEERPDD
Excerpt: (§1) Indirect Determination of the Adenosine Agonism by Way of Gene Expression
(§2) Cells of the CHO (Chinese Hamster Ovary) permanent cell line are transfected stably with the cDNA for the adenosine receptor subtypes A1, A2a and A2b. The adenosine A1 receptors are coupled to the adenylate cyclase by way of Gi proteins, while the adenosine A2a and A2b receptors are coupled by way of Gs proteins. In correspondence with this, the formation of cAMP in the cell is inhibited or stimulated, respectively. After that, expression of the luciferase is modulated by way of a cAMP-dependent promoter. The luciferase test is optimized, with the aim of high sensitivity and reproducibility, low variance and good suitability for implementation on a robot system, by varying several test parameters, such as cell density, duration of the growth phase and the test incubation, forskolin concentration and medium composition. The following test protocol is used for pharmacologically characterizing cells and for the robot-assisted substance screening:
(§3) The stock cultures are grown, at 37° C. and under 5% CO2, in DMEM/F12 medium containing 10% FCS (foetal calf serum) and in each case split 1:10 after 2-3 days. The test cultures are seeded in 384-well plates with 2000 cells per well and grown at 37° C. for approx. 48 hours. The medium is then replaced with a physiological sodium chloride solution (130 mM sodium chloride, 5 mM potassium chloride, 2 mM calcium chloride, 20 mM HEPES, 1 mM magnesium chloride hexahydrate, 5 mM sodium bicarbonate, pH 7.4). The substances to be tested, which are dissolved in DMSO, are pipetted into the test cultures (maximum final concentration of DMSO in the test mixture: 0.5%) in a dilution series of from 1.1×10^−11M to 3×10^−6M (final concentration). 10 minutes later, forskolin is added to the A1 cells and all the cultures are subsequently incubated at 37° C. for four hours. After that, 35 μl of a solution which is composed of 50% lysis reagent (30 mM disodium hydrogenphosphate, 10% glycerol, 3% TritonX100, 25 mM TrisHCl, 2 mM dithiotreitol (DTT), pH 7.8) and 50% luciferase substrate solution (2.5 mM ATP, 0.5 mM luciferin, 0.1 mM coenzyme A, 10 mM tricine, 1.35 mM magnesium sulfate, 15 mM DTT, pH 7.8) are added to the test cultures, which are shaken for approx. 1 minute and the luciferase activity is measured using a camera system. The EC50 values are determined, i.e., the concentrations at which 50% of the luciferase answer is inhibited in the case of the A1 cell, and, respectively, 50% of the maximum stimulation with the corresponding substance is achieved in the case of the A2b and A2a cells. […] Pharmacol., 357 (1998), 1-9).
(§4) Table 1 below lists the EC50 values of representative working examples of compounds of the formula (IA) for the receptor stimulation on adenosine A1, A2a and A2b receptor subtypes: […]

adenosine A2b receptor = molecular target: T2, adenosine A2b receptor (Homo sapiens, UniProt P29275); assay: Indirect determination of adenosine agonism by gene expression (luciferase, cAMP-dependent promoter), A2b cells; assay type: cell-based; details: CHO cells stably transfected with A2b receptor cDNA; 50% of maximum stimulation of luciferase
T2 construct: expressed in transfected cells; host or cells: CHO (Chinese Hamster Ovary) cells, stably transfected
T2 sequence (P29275 1-332): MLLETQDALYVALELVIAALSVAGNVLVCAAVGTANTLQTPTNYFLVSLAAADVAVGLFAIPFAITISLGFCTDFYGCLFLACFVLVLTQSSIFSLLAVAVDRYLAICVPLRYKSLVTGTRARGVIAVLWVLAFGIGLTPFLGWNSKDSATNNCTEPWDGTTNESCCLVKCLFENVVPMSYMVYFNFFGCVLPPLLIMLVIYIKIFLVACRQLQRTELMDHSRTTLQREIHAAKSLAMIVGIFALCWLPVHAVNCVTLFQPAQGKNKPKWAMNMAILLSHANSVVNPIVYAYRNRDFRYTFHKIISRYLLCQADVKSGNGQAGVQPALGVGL
Excerpt: as §1, §2, §3, §4

adenosine A2a receptor = molecular target: T3, adenosine A2a receptor (Homo sapiens, UniProt P29274); assay: Indirect determination of adenosine agonism by gene expression (luciferase, cAMP-dependent promoter), A2a cells; assay type: cell-based; details: CHO cells stably transfected with A2a receptor cDNA; 50% of maximum stimulation of luciferase
T3 construct: expressed in transfected cells; host or cells: CHO (Chinese Hamster Ovary) cells, stably transfected
Excerpt: as §1, §2, §3, §4

T3 sequence (P29274 whole entry): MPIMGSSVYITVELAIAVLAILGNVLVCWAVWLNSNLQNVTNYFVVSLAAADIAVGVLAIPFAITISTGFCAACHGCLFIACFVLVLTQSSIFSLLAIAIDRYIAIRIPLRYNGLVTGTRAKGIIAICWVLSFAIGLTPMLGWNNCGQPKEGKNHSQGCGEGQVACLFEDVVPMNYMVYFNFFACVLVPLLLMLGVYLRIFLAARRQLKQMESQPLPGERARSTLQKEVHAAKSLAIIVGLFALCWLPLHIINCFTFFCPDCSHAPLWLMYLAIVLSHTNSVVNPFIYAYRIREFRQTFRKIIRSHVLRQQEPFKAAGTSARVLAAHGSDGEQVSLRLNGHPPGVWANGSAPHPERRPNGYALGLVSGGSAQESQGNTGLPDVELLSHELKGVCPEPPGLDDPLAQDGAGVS

EC50 (adenosine A1 receptor)	EC50 (adenosine A2b receptor)	EC50 (adenosine A2a receptor)	melting point	SMILES
1 nM	1 nM	300 nM	–	N#Cc1c(N)nc(SCc2csc(Nc3ccc(F)cc3)n2)c(C#N)c1-c1ccc(OCCO)cc1 [Example 8, 2-Amino-6-[({2-[(4-fluorophenyl)amino]-1,3-thiazol-4-yl}methyl)thio]-4-[4-(2-hydroxyethoxy)-phenyl]pyridine-3,5-dicarbonitrile]
2.3 nM	28 nM	> 3000 nM	–	N#Cc1c(N)nc(SCc2csc(Nc3ccc(F)cc3)n2)c(C#N)c1-c1ccc(OCCN)cc1 [Example 70, 2-Amino-4-[4-(2-aminoethoxy)phenyl]-6-[({2-[(4-fluorophenyl)amino]-1,3-thiazol-4-yl}methyl)-thio]pyridine-3,5-dicarbonitrile hydrochloride]
2 nM	1 nM	> 200 nM	–	N#Cc1c(N)nc(SCc2csc(Nc3ccc(F)cc3F)n2)c(C#N)c1-c1ccc(OCCO)cc1 [Example 10, 2-Amino-6-[({2-[(2,4-difluorophenyl)amino]-1,3-thiazol-4-yl}methyl)thio]-4-[4-(2-hydroxyethoxy)phenyl]pyridine-3,5-dicarbonitrile]
0.6 nM	0.3 nM	140 nM	–	N#Cc1c(N)nc(SCc2csc(Nc3cccc(F)c3)n2)c(C#N)c1-c1ccc(OC[C@@H](O)CO)cc1 [Example 44]
0.7 nM	0.5 nM	103 nM	–	N#Cc1ccc(Nc2nc(CSc3nc(N)c(C#N)c(-c4ccc(OCCO)cc4)c3C#N)cs2)cc1 [Example 21]

Second part, the molecule before the results:

SMILES	EC50 (adenosine A1 receptor)	EC50 (adenosine A2b receptor)	EC50 (adenosine A2a receptor)	melting point
COCCOc1ccc(-c2c(C#N)c(N)nc(SCc3csc(Nc4ccc(C)cc4)n3)c2C#N)cc1 [Example 26]	23 nM	74 nM	> 3000 nM	–
N#Cc1c(N)nc(SCc2csc(Nc3cccc(Cl)c3)n2)c(C#N)c1-c1ccc(OC[C@@H](O)CO)cc1 [Example 35]	0.4 nM	0.3 nM	142 nM	–
N#Cc1c(N)nc(SCc2csc(Nc3cccc(Cl)c3)n2)c(C#N)c1-c1ccc(OCC(O)CO)cc1 (stereo not shown) [Example 1, 2-Amino-6-[({2-[(3-chlorophenyl)amino]-1,3-thiazol-4-yl}methyl)thio]-4-[4-(2,3-dihydroxypropoxy)phenyl]pyridine-3,5-dicarbonitrile]	–	–	–	192 to 194 °C
N#Cc1c(N)nc(SCc2csc(Nc3ccc(C(=O)O)cc3)n2)c(C#N)c1-c1ccc(OCCO)cc1 [Example 13, 4-({4-[({6-Amino-3,5-dicyano-4-[4-(2-hydroxyethoxy)phenyl]pyridin-2-yl}thio)methyl]-1,3-thiazol-2-yl}amino)benzoic acid]	0.2 nM	0.1 nM	236 nM	–
COc1cc(Nc2nc(CSc3nc(N)c(C#N)c(-c4ccc(OC[C@@H](O)CO)cc4)c3C#N)cs2)ccc1F [Example 39]	0.3 nM	1.4 nM	1200 nM	–
N#Cc1c(N)nc(SCc2csc(Nc3ccc(F)c(Cl)c3)n2)c(C#N)c1-c1ccc(OC[C@@H](O)CO)cc1 [Example 48]	0.4 nM	0.1 nM	140 nM	–
Cc1cccc(Nc2nc(CSc3nc(N)c(C#N)c(-c4ccc(OCC(O)CO)cc4)c3C#N)cs2)c1 (stereo not shown) [Example 2]	9.9 nM	6.1 nM	747 nM	–
